This passage reports GI50 and TGI results from PubChem BioAssay (NCI).

Common to all, as to assay: inhibition of tumour cell growth, NCI panel, 48 h
For assay [1], the system named is LOX IMVI melanoma.
In assay [2] the test system is SK-MEL-2 melanoma.
The test system of assay [3] is HOP-62 NSCLC.
For assay [4], the system named is UO-31 renal.
In assay [5] the test system is TK-10 renal.
In assay [6] the test system is ACHN renal.
For assay [7], the system named is OVCAR-5 ovarian.
Assay [8] deals with SF-295 CNS.
The subject of assay [9] is COLO 205 colon.
For assay [10], the system named is SR leukemia.

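Where inhibition never reached the appropriate level, the endpoint shown equals the highest concentration tested. Otherwise, values were interpolated linearly from a five-concentration, 48-hour dose response in 96-well plates. Here, GI50 denotes the concentration required for 50% inhibition of growth. At the TGI there is no net growth.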

With `CO/N=C(\COc1ccc2c(c1)oc(=O)c1cc(OC)ccc12)c1ccc(OC)cc1`, the GI50 in [1], in assay [2], in assay [3], in [4], in [5] and in [6] was more than 100 µM each time. The GI50 in assay [7], in assay [8] and in assay [9] was more than 100 µM each time. The TGI in assay [1], in [2], in assay [3], in assay [4], in [5] and in [6] was more than 100 µM each time. In addition, the TGI in assay [7], in assay [8] and in [9] was more than 100 µM each time.

Consider `Cc1cc(Cl)ccc1NC(=O)C(=O)Cc1nc2ccccc2o1`, for which the TGI in [1], in assay [2], in assay [3], in assay [4], in assay [5] and in [6] was more than 100 µM throughout. Also, the TGI in assay [7], in assay [8] and in [9] was more than 100 µM in each case.

For `CC(=O)Oc1c2c(c(O)c3ccccc13)C(n1cnc3c(ncn3C3OC(CO)C4OC(C)(C)OC43)c1=N)CCC2` (stereo not given), the TGI in assay [1] worked out at 21 µM; in [2], 29.4 µM; in [3] it was 30.6 µM; in assay [4], 29.8 µM; in assay [5], 35.9 µM; in [6], 30.9 µM. Further, the figures for the TGI in assay [7], in assay [8] and in [9] were 35.9 µM, 27 µM and 37.6 µM, respectively.

For `COc1ccc(/C=C2/N=C(c3ccccc3)N(c3c(C)n(C)n(-c4ccccc4)c3=O)C2=O)cc1OC`, the GI50 in [1], in assay [2], in assay [3], in assay [4], in assay [5] and in assay [6] was more than 100 µM each time. The GI50 in assay [7], in [8] and in [9] was more than 100 µM in each case. In addition, the TGI in [1], in [2], in assay [3], in [4], in assay [5] and in assay [6] was more than 100 µM each time. Also, the TGI in [7], in assay [8] and in assay [9] was more than 100 µM in each case.

With `Cc1ccc(/C=C/C(=O)c2sc(-c3nc(C)c(C(=O)/C=C/c4ccc(C)cc4)s3)nc2C)cc1`, the TGI in [1], in [2], in assay [3], in assay [4], in [5] and in assay [6] was more than 100 µM throughout. Also, the TGI in assay [7], in assay [8] and in assay [9] was more than 100 µM in each case.

As for `COc1ccc(CC2NCCc3c2[nH]c2ccccc32)cc1` (stereo not given), the TGI in [1], in [2], in [3], in assay [4], in assay [5] and in assay [6] was more than 100 µM throughout. Moreover, the TGI was more than 100 µM in [7], more than 100 µM in assay [8] and 40.6 µM in [9].

For the compound `[Cl][Hg][c]1cc[c]([Hg][Cl])o1`, the GI50 is 0.707 µM in assay [1]; 2.56 µM in assay [2]; 13.5 µM in assay [3]; 1.98 µM in assay [4]; 1.7 µM in [5]; 1.85 µM in assay [6]. Further, the GI50 in assay [7] is 7.17 µM; in assay [8] it was 19.4 µM; in [9], 1.65 µM. The TGI in assay [1] is 4.27 µM; in [2] it was 11.3 µM; in assay [3], 28.4 µM; in [4], 3.96 µM; in [5], 3.1 µM; in assay [6], 3.39 µM. Also, the TGI came out at 23.9 µM in assay [7], 58.6 µM in [8] and 3.26 µM in assay [9].

On to `OCC1OC(c2nc(C3=NCCCN3)cs2)C(O)C1O` (stereo not given), for which the TGI in assay [1], in assay [2], in assay [3], in [4], in assay [5] and in assay [6] was more than 100 µM throughout. The TGI in assay [7] is more than 100 µM; in assay [8] it was more than 10 µM; in assay [9] it was more than 100 µM.

In the case of `CN=C1CC2c3cc(OC)c(OC)cc3CCN2C2=C1C(=O)CC(C)(C)C2` (stereo not given), the TGI in [1], in assay [2], in [4], in assay [10], in assay [5] and in assay [6] was more than 100 µM each time. In addition, the TGI in assay [7], in [8] and in assay [9] was more than 100 µM throughout.

Regarding `Cc1cc(N(CCC#N)CCC#N)ccc1N=Nc1ccc(C(=O)O)cc1`, the TGI in assay [1], in [2], in assay [3], in [4], in assay [5] and in [6] was more than 100 µM each time. For the same compound, the TGI in assay [7], in assay [8] and in assay [9] was more than 100 µM throughout.

Take `O=C(CSc1nc2ccccc2nc1-c1ccccc1)Nc1ccc(F)cc1`: the GI50 in assay [1] was 68 µM; in assay [2] it was 73.5 µM; in [3], 32.6 µM; in assay [4], 45.7 µM; in [5], 41.1 µM; in assay [6], 41.9 µM. Further, the values for the GI50 in assay [7], in assay [8] and in assay [9] were more than 100 µM, 40.6 µM and 83.3 µM, respectively. In addition, the TGI in [1], in assay [2], in assay [3], in assay [4], in assay [5] and in assay [6] was more than 100 µM each time. Besides, the TGI in assay [7], in assay [8] and in [9] was more than 100 µM each time.
